IC50 data for 28 compounds are collected here from patent publication US9145415B2, “Nitrogen-containing heterocyclic compound or salt thereof” (FUJIFILM Corporation, priority 2012, dated 2015).

Where two headings read alike, the source gives them in different places.

The subject of one assay is Molm-13 cells. Description: Leukemia cell proliferation inhibition test (ATPlite), Molm-13. It counts as cell-based. The settings on record: Homo sapiens, read-out: MOLM13 cell proliferation inhibition effect. Put shortly: (§1)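 Proliferation inhibition is quantified from total cellular ATP, measured by luciferase luminescence, after cells grow with compound for 72 hours. The GI50 is the concentration giving half the signal of the 0.1% DMSO control, fitted to a sigmoid curve from duplicate points.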

The next assay concerns MV4-11 cells. Description: Leukemia cell proliferation inhibition test (ATPlite), MV4-11. To be noted: Homo sapiens, read-out: MV4-11 cell proliferation inhibition effect. It counts as cell-based. Put shortly: as §1
The target of assay [1] is T1, human FLT3 protein (FLT3 (WT)) (Homo sapiens, UniProt P36888).
T1 construct: human FLT3 protein (intracellular region, 564 to 993 aa); GST; purchased Carna Biosciences; host or cells: baculovirus expression system
T1 sequence (P36888 564-993): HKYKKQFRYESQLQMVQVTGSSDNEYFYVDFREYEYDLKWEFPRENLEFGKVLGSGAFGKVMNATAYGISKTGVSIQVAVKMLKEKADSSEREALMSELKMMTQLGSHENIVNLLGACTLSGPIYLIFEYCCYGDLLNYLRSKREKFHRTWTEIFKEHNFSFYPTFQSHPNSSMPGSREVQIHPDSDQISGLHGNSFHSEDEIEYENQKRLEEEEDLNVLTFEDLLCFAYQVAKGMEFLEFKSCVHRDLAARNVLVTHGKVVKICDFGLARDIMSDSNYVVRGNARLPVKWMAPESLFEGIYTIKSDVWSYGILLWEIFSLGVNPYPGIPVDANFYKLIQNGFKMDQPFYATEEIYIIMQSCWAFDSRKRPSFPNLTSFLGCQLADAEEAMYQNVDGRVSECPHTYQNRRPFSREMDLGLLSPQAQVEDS
The assay is described as follows: FLT3 inhibition test (FLT3 enzyme inhibition, time-resolved fluorescence of substrate peptide phosphorylation). Format: biochemical. To be noted: read-out: FLT3 (WT) enzyme inhibition activity. Put shortly:
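Wild-type human FLT3 (1.2 μg) pre-incubated with compound 15 min at 25° C in 100 mM HEPES pH 7.5, 10 mM MgCl2, 25 mM NaCl, 1 mM DTT. Reaction started with substrate peptide and ATP (final 50 μM), run 30 min at 25° C; phosphorylation read by time-resolved fluorescence.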

[2] abbreviates: MOLM-13, 72 h, Molm-13, 72 hours culture, ATPlite, GI50 per method.
Setting [3] is: MV4-11, 72 h, MV4-11, 72 hours culture, ATPlite, GI50 per method.
The mark [4] stands for this setting: GST-fused human FLT3 (564 to 993 aa), ATP 50 μM.

With `CCCNc1nc(NCCc2ccncc2)ncc1C(=O)Nc1cccc(NC(=O)CNC(=O)/C=C/CN2CC(C)NC(C)C2)c1` (stereo not drawn) [Compound 2-15], the IC50 in the assay with Molm-13 cells (setting [2]) was 0.1 to 1 µM; with MV4-11 cells (setting [3]), 0.1 to 1 µM; in assay [1] (setting [4]) it was below 0.01 µM.
In the case of `C=CC(=O)Nc1cc(NC(=O)c2cnc(NCCc3ccncc3)nc2NCCC)cc(C(F)(F)F)c1` [Compound 2-28], the IC50 (in the assay with Molm-13 cells (setting [2]); with MV4-11 cells (setting [3]); in assay [1] (setting [4])) was 0.1 to 1 µM in each case.
In the case of `CCCNc1nc(Nc2cccc(Cl)c2)ncc1C#CCCCNC(=O)[C@H](C)N(C)C(=O)/C=C/CN(C)C` [Compound 12-2, (S,E)-N-(1-((5-(2-((3-chlorophenyl)amino)-4-(propylamino)pyrimidin-5-yl)-4-pentyn-1-yl)amino)-1-oxopropan-2-yl)-4-(dimethylamino)-N-methyl-2-butenamide], the IC50 in the assay with Molm-13 cells (setting [2]) is 0.01 to 0.1 µM; with MV4-11 cells (setting [3]) it was below 0.01 µM; in assay [1] (setting [4]) it was below 0.01 µM.
As for `C[C@@H](C(=O)N[C@H]1CCC[C@@H](C#Cc2cnc(Nc3ccc(F)cc3)nc2NC2CC2)C1)N(C)C(=O)/C=C/CN(C)C` [Compound 21-46], the IC50 with Molm-13 cells (MOLM-13, MOLM13 cell) is below 0.01 µM; with MV4-11 cells (MV4-11, MV4-11 cell), below 0.01 µM; in assay [1] (FLT3 (WT)), below 0.01 µM.
As to `CCCNc1nc(Nc2cc(C)ns2)ncc1C#CCCCNC(=O)[C@H](C)N(C)C(=O)/C=C/CN(C)C` [Compound 9-30, (S,E)-4-(Dimethylamino)-N-methyl-N-(1-((5-(2-((3-methylisothiazol-5-yl)amino)-4-(propylamino)pyrimidin-5-yl)-4-pentyn-1-yl)amino)-1-oxopropan-2-yl)-2-butenamide], the IC50 (in the assay with Molm-13 cells (setting [2]); with MV4-11 cells (setting [3]); in assay [1] (setting [4])) was below 0.01 µM throughout.
On to `COCCCNc1nc(Nc2ccc(F)nc2)ncc1C#CCCCNC(=O)[C@H](C)N(C)C(=O)/C=C/CN(C)C` [Compound 10-30], for which the IC50 with Molm-13 cells (setting [2]) is 0.01 to 0.1 µM; with MV4-11 cells (setting [3]), below 0.01 µM; in assay [1] (setting [4]) it was below 0.01 µM.
In the case of `CN(C)C/C=C/C(=O)N(C)CC(=O)NCCCC#Cc1cnc(Nc2ccc(F)cc2)nc1N1CCOCC1` [Compound 10-17], the IC50 in the assay with Molm-13 cells (setting [2]) is 0.01 to 0.1 µM; with MV4-11 cells (setting [3]), below 0.01 µM; in assay [1] (setting [4]) it was below 0.01 µM.
Turning to `COCCNc1nc(Nc2ccc(C#N)cc2)ncc1C#C[C@@H]1CCC[C@H](NC(=O)[C@H](C)N(C)C(=O)/C=C/CN(C)C)C1` [Compound 22-39], the IC50 was below 0.01 µM in the assay on Molm-13 cells (MOLM-13, MOLM13 cell); below 0.01 µM with MV4-11 cells (MV4-11, MV4-11 cell); below 0.01 µM in assay [1] (FLT3 (WT)).
Turning to `CCCNc1nc(Nc2ccc(F)cc2)ncc1C#C[C@@H]1CCC[C@H](NC(=O)[C@H](C)N(C)C(=O)/C=C/CN(C)C)C1` [Compound 21-40], the IC50 in the assay on Molm-13 cells (MOLM-13, MOLM13 cell) is below 0.01 µM; in the assay on MV4-11 cells (MV4-11, MV4-11 cell), below 0.01 µM; in assay [1] (FLT3 (WT)), below 0.01 µM.
In the case of `CCCNc1nc(Nc2cccc(F)c2)ncc1-c1cn(CCNC(=O)[C@H](C)N(C)C(=O)/C=C/CN(C)C)nn1` [Compound 17-2, (S,E)-4-(dimethylamino)-N-(1-((2-(4-(2-((3-fluorophenyl)amino)-4-(propylamino)pyrimidin-5-yl)-1H-1,2,3-triazol-1-yl)ethyl)amino)-1-oxopropan-2-yl)-N-methyl-2-butenamide], the IC50 (with Molm-13 cells (setting [2]); with MV4-11 cells (setting [3]); in assay [1] (setting [4])) was below 0.01 µM each time.
On to `CCCNc1nc(Nc2ccc(-n3cccn3)cc2)ncc1C#CCCCNC(=O)[C@H](C)N(C)C(=O)/C=C/CN(C)C` [Compound 22-15], for which the IC50 in the assay on Molm-13 cells (MOLM-13, MOLM13 cell) was 0.01 to 0.1 µM; with MV4-11 cells (MV4-11, MV4-11 cell), 0.01 to 0.1 µM; in assay [1] (FLT3 (WT)), below 0.01 µM.
For the compound `CC(C)Oc1nc(Nc2cccc(F)c2)ncc1C#C[C@@H]1CCC[C@H](NC(=O)[C@H](C)N(C)C(=O)/C=C/CN(C)C)C1` [Compound 21-21], the IC50 (in the assay with Molm-13 cells (setting [2]); in the assay with MV4-11 cells (setting [3]); in assay [1] (setting [4])) was below 0.01 µM throughout.
As to `C=CC(=O)NCC(=O)Nc1cccc(NC(=O)c2cnc(Nc3ccc(C#N)cc3)nc2NCCC)c1` [Compound 6-2, N-(3-(2-(acrylylamido)acetamido)phenyl)-2-((4-cyanophenyl)amino)-4-(propylamino)pyrimidine-5-carboxamide], the IC50 lay within 0.1 to 1 µM with Molm-13 cells (setting [2]), 0.01 to 0.1 µM in the assay with MV4-11 cells (setting [3]) and 0.01 to 0.1 µM in assay [1] (setting [4]).
With `CCCNc1nc(Nc2cccc(F)c2)ncc1C#CCCCNC(=O)[C@@H]1CCCCN1C(=O)/C=C/CN(C)C` [Compound 7-46], the results for the IC50 (in the assay on Molm-13 cells (setting [2]); with MV4-11 cells (setting [3]); in assay [1] (setting [4])) were 0.01 to 0.1 µM, below 0.01 µM and below 0.01 µM, respectively.
Consider `CCCNc1nc(Nc2ccc(C#N)c(F)c2)ncc1C#CCCCNC(=O)[C@H](C)N(C)C(=O)/C=C/CN(C)C` [Compound 9-25], for which the IC50 (with Molm-13 cells (setting [2]); in the assay on MV4-11 cells (setting [3]); in assay [1] (setting [4])) was below 0.01 µM each time.
`CNc1nc(Nc2ccc3cn[nH]c3c2)ncc1C#CCCCNC(=O)[C@@H]1CCCN1C(=O)/C=C/CN(C)C` [Compound 10-69]: the IC50 (in the assay with Molm-13 cells (setting [2]); in the assay with MV4-11 cells (setting [3]); in assay [1] (setting [4])) was below 0.01 µM in each case.
For the compound `CCCNc1nc(Nc2cnc3c(c2)c(OC)nn3C)ncc1C#CCCCNC(=O)[C@@H]1CCCN1C(=O)/C=C/CN(C)C` [Compound 22-47], the IC50 was below 0.01 µM in the assay on Molm-13 cells (MOLM-13, MOLM13 cell); below 0.01 µM with MV4-11 cells (MV4-11, MV4-11 cell); below 0.01 µM in assay [1] (FLT3 (WT)).
`CCCNc1nc(Nc2ccc(C(N)=O)cc2)ncc1C#CCCCNC(C)(C)CNC(=O)/C=C/CN(C)C` [Compound 8-10]: the figures for the IC50 (with Molm-13 cells (setting [2]); in the assay on MV4-11 cells (setting [3]); in assay [1] (setting [4])) were 0.01 to 0.1 µM, below 0.01 µM and below 0.01 µM, respectively.
Turning to `C[C@@H](C(=O)NCCCC#Cc1cnc(Nc2cccc(F)c2)nc1N1CCOCC1)N(C)C(=O)/C=C/CN(C)C` [Compound 10-5, (S,E)-4-(Dimethylamino)-N-(1-((5-(2-((3-fluorophenyl)amino)-4-morpholinopyrimidin-5-yl)-4-pentyn-1-yl)amino)-1-oxopropan-2-yl)-N-methyl-2-butenamide], the IC50 (in the assay with Molm-13 cells (setting [2]); in the assay with MV4-11 cells (setting [3]); in assay [1] (setting [4])) was below 0.01 µM each time.
With `CCCNc1nc(NC(=O)Nc2ccncc2)ncc1C(=O)Nc1cccc(NC(=O)[C@H](C)NC(=O)/C=C/CN(C)C)c1` [Compound 6-15], the IC50 was 0.1 to 1 µM in the assay on Molm-13 cells (setting [2]), 0.1 to 1 µM in the assay on MV4-11 cells (setting [3]) and below 0.01 µM in assay [1] (setting [4]).
With `COc1ccc(Nc2nc(Nc3ccc(F)cc3)ncc2C#CCCCNC(=O)CN(C)C(=O)/C=C/CN(C)C)cn1` [Compound 10-20], the IC50 (in the assay on Molm-13 cells (setting [2]); in the assay with MV4-11 cells (setting [3]); in assay [1] (setting [4])) was below 0.01 µM each time.
As for `C[C@@H](C(=O)NCCC(C)(C)C#Cc1cnc(Nc2ccc(C#N)cc2)nc1NC1CC1)N(C)C(=O)/C=C/CN(C)C` [Compound 9-27], the IC50 (in the assay with Molm-13 cells (setting [2]); in the assay with MV4-11 cells (setting [3]); in assay [1] (setting [4])) was below 0.01 µM throughout.
With `CCCNc1nc(Nc2cccc(F)c2)ncc1C#Cc1ccccc1CNC(=O)[C@H](C)N(C)C(=O)/C=C/CN(C)C` [Compound 7-25], the IC50 is 0.01 to 0.1 µM in the assay on Molm-13 cells (setting [2]), below 0.01 µM in the assay on MV4-11 cells (setting [3]) and below 0.01 µM in assay [1] (setting [4]).
For `CCCNc1nc(Nc2ccc(C#N)cc2)ncc1C#CCCCNC(=O)[C@@H]1CCN1C(=O)/C=C/CN(C)C` [Compound 7-52], the IC50 (in the assay with Molm-13 cells (setting [2]); in the assay on MV4-11 cells (setting [3]); in assay [1] (setting [4])) was below 0.01 µM in each case.
As to `C[C@@H](C(=O)N[C@H]1C[C@@H](C#Cc2cnc(Nc3ccc(C#N)cc3)nc2NCCCF)C1)N(C)C(=O)/C=C/CN(C)C` [Compound 15-14, (E)-N—((S)-1-(((1S,3R)-3-((2-((4-Cyanophenyl)amino)-4-((3-fluoropropyl)amino)pyrimidin-5-yl)ethynyl)cyclobutyl)amino)-1-oxopropan-2-yl)-4-(dimethylamino)-N-methyl-2-butenamide], the IC50 (in the assay on Molm-13 cells (setting [2]); in the assay on MV4-11 cells (setting [3]); in assay [1] (setting [4])) was below 0.01 µM each time.
On to `CCCN(c1nc(Nc2ccnc(F)c2)ncc1C#CCCCNC(=O)[C@H](C)N(C)C(=O)/C=C/CN(C)C)C1CC1` [Compound 9-14], for which the IC50 (in the assay with Molm-13 cells (setting [2]); in the assay with MV4-11 cells (setting [3]); in assay [1] (setting [4])) was below 0.01 µM each time.
For the compound `CCCNc1nc(Nc2ccc(C#N)cc2)ncc1C#C[C@H]1CC[C@H](NC(=O)[C@H](C)N(C)C(=O)/C=C/CN(C)C)C1` [Compound 13-12], the IC50 (in the assay with Molm-13 cells (setting [2]); with MV4-11 cells (setting [3]); in assay [1] (setting [4])) was below 0.01 µM each time.
As for `CNc1nc(Nc2ccc3c(cnn3C)c2)ncc1C#CCCCNC(=O)[C@H](C)N(C)C(=O)/C=C/CN(C)C` [Compound 10-52], the IC50 (in the assay with Molm-13 cells (setting [2]); in the assay with MV4-11 cells (setting [3]); in assay [1] (setting [4])) was below 0.01 µM throughout.
